Data published in patent US11352340B2, “Pyridine and pyridimine compounds as PI3K-gamma inhibitors” (Incyte Corporation, priority 2016, dated 2022).
Where a name gives a salt, the structure may show the parent alone.

Legend:
[1] = target: PI3Kγ (p110γ) Recombinant Human Protein (Homo sapiens (Human), UniProt P48736); experiment: PI3K-γ Scintillation Proximity Assay; assay type: biochemical; details: read-out: PI3K-gamma SPA IC50
Excerpt: Example B. PI3K-γ Scintillation Proximity Assay
(§1) [γ-^33P]ATP (10 mCi/mL) and Wheat Germ Agglutinin (WGA) YSi SPA Scintillation Beads was purchased from Perkin-Elmer (Waltham, Mass.). Lipid kinase substrate, D-myo-Phosphatidylinositol 4,5-bisphosphate (PtdIns(4,5)P2)D (+)-sn-1,2-di-O-octanoylglyceryl, 3-O-phospho linked (PIP2), CAS 204858-53-7, was purchased from Echelon Biosciences (Salt Lake City, Utah). PI3Kγ (p110γ) Recombinant Human Protein was purchased from Life technology (Grand Island, N.Y.). ATP, MgCl2, DTT, EDTA, MOPS and CHAPS were purchased from Sigma-Aldrich (St. Louis, Mo.).
(§2) The kinase reaction was conducted in polystyrene 384-well Greiner Bio-one white plate from Thermo Fisher Scientific in a final volume of 25 μL. Inhibitors were first diluted serially in DMSO and added to the plate wells before the addition of other reaction components. The final concentration of DMSO in the assay was 2%. The PI3Kγ assay was carried out at room temperature in 20 mM MOPS, pH 6.7, 10 mM MgCl2, 5 mM DTT and CHAPS 0.03%. Reactions were initiated by the addition of ATP, the final reaction mixture consisted of 20 μM PIP2, 2 μM ATP, 0.5 μCi [γ-^33P] ATP, 13 nM PI3Kγ. Reactions were incubated for 120 min and terminated by the addition of 40 μL SPA beads suspended in quench buffer: 163 mM potassium phosphate pH 7.8, 20% glycerol, 25 mM EDTA. The final concentration of SPA beads is 1.0 mg/mL. After the plate sealing, plates were shaken overnight at room temperature and centrifuged at 1500 rpm for 10 min, the radioactivity of the product was determined by scintillation counting on Topcount (Perkin-Elmer). IC50 determination was performed by fitting the curve of percent of the solvent control activity versus the log of the inhibitor concentration using the GraphPad Prism 6.0 software.

[2] = target: PI3Kδ (p110δ/p85α) Recombinant Human Protein (Homo sapiens (Human), UniProt O00329); experiment: PI3Kδ Scintillation Proximity Assay; assay type: biochemical; details: read-out: PI3K-delta SPA IC50
PI3Kδ (p110δ/p85α) Recombinant Human Protein, sequence (O00329 whole entry): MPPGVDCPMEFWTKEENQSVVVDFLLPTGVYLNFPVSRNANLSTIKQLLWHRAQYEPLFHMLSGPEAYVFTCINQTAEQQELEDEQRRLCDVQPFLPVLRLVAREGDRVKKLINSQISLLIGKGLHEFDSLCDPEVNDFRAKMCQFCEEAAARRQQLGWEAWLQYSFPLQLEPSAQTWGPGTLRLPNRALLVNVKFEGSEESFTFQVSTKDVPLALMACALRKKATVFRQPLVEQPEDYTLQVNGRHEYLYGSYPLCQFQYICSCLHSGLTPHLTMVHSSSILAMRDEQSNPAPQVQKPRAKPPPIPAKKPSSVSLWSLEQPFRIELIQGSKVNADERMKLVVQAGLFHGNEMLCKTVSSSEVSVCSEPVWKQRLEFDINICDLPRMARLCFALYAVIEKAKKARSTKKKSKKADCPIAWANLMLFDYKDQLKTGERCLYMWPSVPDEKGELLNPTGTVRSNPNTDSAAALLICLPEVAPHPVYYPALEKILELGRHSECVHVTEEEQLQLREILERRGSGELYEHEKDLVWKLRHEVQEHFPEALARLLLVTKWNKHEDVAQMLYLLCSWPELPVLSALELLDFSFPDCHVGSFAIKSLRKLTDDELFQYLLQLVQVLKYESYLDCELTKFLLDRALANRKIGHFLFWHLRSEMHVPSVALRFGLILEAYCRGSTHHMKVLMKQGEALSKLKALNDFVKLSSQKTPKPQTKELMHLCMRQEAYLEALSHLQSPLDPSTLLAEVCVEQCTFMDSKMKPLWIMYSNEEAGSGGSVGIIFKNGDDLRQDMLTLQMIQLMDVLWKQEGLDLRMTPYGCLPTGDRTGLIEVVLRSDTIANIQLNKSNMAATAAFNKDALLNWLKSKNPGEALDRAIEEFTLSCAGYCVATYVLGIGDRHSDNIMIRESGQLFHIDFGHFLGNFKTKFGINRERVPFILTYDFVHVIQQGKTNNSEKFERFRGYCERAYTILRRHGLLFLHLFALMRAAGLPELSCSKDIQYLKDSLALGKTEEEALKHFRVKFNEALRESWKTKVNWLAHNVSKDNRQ
PI3Kδ (p110δ/p85α) Recombinant Human Protein, sequence (P27986 whole entry partner): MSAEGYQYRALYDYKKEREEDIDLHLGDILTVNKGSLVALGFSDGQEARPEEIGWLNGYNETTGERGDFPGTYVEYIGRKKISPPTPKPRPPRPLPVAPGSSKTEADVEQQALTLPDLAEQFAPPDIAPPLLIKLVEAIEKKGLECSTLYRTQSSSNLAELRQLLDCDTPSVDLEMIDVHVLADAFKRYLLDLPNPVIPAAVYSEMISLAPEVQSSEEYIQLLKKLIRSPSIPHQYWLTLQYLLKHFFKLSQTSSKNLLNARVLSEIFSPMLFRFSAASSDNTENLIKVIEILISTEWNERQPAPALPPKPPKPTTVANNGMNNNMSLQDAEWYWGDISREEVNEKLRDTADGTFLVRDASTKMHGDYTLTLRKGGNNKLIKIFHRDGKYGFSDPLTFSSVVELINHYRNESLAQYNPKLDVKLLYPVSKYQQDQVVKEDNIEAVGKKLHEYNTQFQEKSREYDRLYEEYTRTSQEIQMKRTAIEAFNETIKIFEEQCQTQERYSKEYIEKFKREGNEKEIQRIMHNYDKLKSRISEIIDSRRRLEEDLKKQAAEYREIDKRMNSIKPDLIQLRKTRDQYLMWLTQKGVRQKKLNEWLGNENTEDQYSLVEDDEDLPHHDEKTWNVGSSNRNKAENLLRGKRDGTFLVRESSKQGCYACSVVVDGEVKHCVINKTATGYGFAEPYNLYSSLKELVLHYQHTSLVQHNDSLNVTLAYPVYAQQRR
Excerpt: Example C. PI3Kδ Scintillation Proximity Assay
as §1, with “PI3Kδ (p110δ/p85α)” for “PI3Kγ (p110γ)”, “Eurofins (St Charles, Mo.).” for “Life technology (Grand Island, N.Y.).”
as §2, with “PI3Kδ” for “PI3Kγ”, “3.4” for “13”, “PI3Kδ.” for “PI3Kγ.”

PI3Kγ (p110γ) Recombinant Human Protein, sequence (P48736 whole entry): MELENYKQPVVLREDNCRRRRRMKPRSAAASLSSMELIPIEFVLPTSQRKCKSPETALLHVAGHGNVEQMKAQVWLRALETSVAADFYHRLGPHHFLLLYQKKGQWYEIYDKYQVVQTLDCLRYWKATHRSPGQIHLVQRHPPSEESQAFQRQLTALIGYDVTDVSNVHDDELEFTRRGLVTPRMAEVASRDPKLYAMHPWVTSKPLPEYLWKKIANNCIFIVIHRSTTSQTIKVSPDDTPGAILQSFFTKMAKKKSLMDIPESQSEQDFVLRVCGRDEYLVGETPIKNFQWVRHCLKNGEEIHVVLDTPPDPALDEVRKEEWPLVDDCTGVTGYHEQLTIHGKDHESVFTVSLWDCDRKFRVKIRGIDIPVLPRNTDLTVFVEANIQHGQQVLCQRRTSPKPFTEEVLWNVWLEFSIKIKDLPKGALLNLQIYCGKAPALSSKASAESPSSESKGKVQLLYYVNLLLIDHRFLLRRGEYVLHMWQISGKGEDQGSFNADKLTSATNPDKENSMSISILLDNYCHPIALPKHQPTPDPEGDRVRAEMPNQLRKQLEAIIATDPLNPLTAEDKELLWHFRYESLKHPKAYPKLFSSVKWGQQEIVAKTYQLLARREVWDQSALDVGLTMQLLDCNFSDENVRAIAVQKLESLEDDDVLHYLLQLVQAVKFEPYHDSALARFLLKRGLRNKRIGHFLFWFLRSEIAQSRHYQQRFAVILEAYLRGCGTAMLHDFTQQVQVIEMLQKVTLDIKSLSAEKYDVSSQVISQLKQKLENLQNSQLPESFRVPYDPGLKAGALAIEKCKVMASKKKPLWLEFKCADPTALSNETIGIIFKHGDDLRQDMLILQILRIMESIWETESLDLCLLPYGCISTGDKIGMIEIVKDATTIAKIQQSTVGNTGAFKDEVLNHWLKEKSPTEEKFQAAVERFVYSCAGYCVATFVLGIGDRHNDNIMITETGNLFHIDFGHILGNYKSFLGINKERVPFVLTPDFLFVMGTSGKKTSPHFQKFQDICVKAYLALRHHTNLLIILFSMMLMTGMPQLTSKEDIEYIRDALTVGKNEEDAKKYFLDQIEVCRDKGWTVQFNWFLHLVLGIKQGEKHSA

IC50 [1] | IC50 [2] | SMILES
> 500 nM | ≤ 500 nM | N#CCCn1cc(-c2ccnc(-c3ncc(-c4ccccc4)[nH]3)c2)cn1 [Example 52, 3-(4-(2-(5-Phenyl-1H-imidazol-2-yl)pyridin-4-yl)-1H-pyrazol-1-yl)propanenitrile trifluoroacetate salt]
> 500 nM | > 500 nM | NC(=O)CCn1cc(-c2ccnc(-c3ncc(-c4ccccc4)[nH]3)c2)cn1 [Example 53, 3-(4-(2-(5-Phenyl-1H-imidazol-2-yl)pyridin-4-yl)-1H-pyrazol-1-yl)propanamide]
≤ 500 nM | ≤ 500 nM | CCOC(=O)CCn1cc(-c2ccnc(-c3ncc(-c4ccccc4)[nH]3)c2)cn1 [Example 55, Ethyl 3-(4-(2-(5-phenyl-1H-imidazol-2-yl)pyridin-4-yl)-1H-pyrazol-1-yl)propanoate trifluoroacetate salt]
≤ 500 nM | ≤ 100 nM | O=C(O)CCn1cc(-c2ccnc(-c3ncc(-c4ccccc4)[nH]3)c2)cn1 [Example 57, 3-(4-(2-(5-Phenyl-1H-imidazol-2-yl)pyridin-4-yl)-1H-pyrazol-1-yl)propanoic acid trifluoroacetate salt]
> 500 nM | > 500 nM | CNC(=O)CCn1cc(-c2ccnc(-c3ncc(-c4ccccc4)[nH]3)c2)cn1 [Example 58, N-Methyl-3-(4-(2-(5-phenyl-1H-imidazol-2-yl)pyridin-4-yl)-1H-pyrazol-1-yl)propanamide trifluoroacetate salt]
> 500 nM | > 500 nM | O=C(CCn1cc(-c2ccnc(-c3ncc(-c4ccccc4)[nH]3)c2)cn1)NC1CCCC1 [Example 59, N-cyclopentyl-3-(4-(2-(5-phenyl-1H-imidazol-2-yl)pyridin-4-yl)-1H-pyrazol-1-yl)propanamide trifluoroacetate salt]
> 500 nM | > 500 nM | COc1cncc(-c2ccnc(-c3cnc(N)[nH]3)c2)c1 [Example 61, 5-(5-Methoxy-3,4′-bipyridin-2′-yl)-1H-imidazol-2-amine]
≤ 500 nM | > 500 nM | COc1cncc(-c2ccnc(-c3cnc(NCC(C)C)[nH]3)c2)c1 [Example 64, N-Isobutyl-5-(5-methoxy-3,4′-bipyridin-2′-yl)-1H-imidazol-2-amine trifluoroacetate salt]
> 500 nM | > 500 nM | COc1cncc(-c2ccnc(-c3nnc[nH]3)c2)c1 [Example 72, 5-Methoxy-2′-(4H-1,2,4-triazol-3-yl)-3,4′-bipyridine]
> 500 nM | > 500 nM | COc1cncc(-c2ccnc(-c3nnc(C)[nH]3)c2)c1 [Example 73, 5-Methoxy-2′-(5-methyl-4H-1,2,4-triazol-3-yl)-3,4′-bipyridine]
> 500 nM | > 500 nM | COc1cncc(-c2ccnc(-c3nc(C)c(NC(C)=O)[nH]3)c2)c1 [Example 75, N-[2-(5-Methoxy-3,4′-bipyridin-2′-yl)-4-methyl-1H-imidazol-5-yl]acetamide]
≤ 500 nM | ≤ 500 nM | COc1cncc(-c2ccnc(-c3nc4c([nH]3)CCC4)c2)c1 [Example 78, 2-(5-Methoxy-3,4′-bipyridin-2′-yl)-1,4,5,6-tetrahydrocyclopenta[d]imidazole]

The next lines start with the molecule.

SMILES | IC50 [1] | IC50 [2]
COC(=O)c1ccc(Cn2cc(-c3ccnc(-c4ncc(-c5ccccc5)[nH]4)c3)cn2)cc1 [Example 32, Methyl 4-((4-(2-(5-phenyl-1H-imidazol-2-yl)pyridin-4-yl)-1H-pyrazol-1-yl)methyl)benzoate trifluoroacetate salt] | ≤ 500 nM | > 500 nM
O=C(O)c1ccccc1Cn1cc(-c2ccnc(-c3ncc(-c4ccccc4)[nH]3)c2)cn1 [Example 33, 2-((4-(2-(5-Phenyl-1H-imidazol-2-yl)pyridin-4-yl)-1H-pyrazol-1-yl)methyl)benzoic acid trifluoroacetate salt] | > 500 nM | ≤ 500 nM
O=C(O)c1cccc(Cn2cc(-c3ccnc(-c4ncc(-c5ccccc5)[nH]4)c3)cn2)c1 [Example 34, 3-((4-(2-(5-Phenyl-1H-imidazol-2-yl)pyridin-4-yl)-1H-pyrazol-1-yl)methyl)benzoic acid trifluoroacetate salt] | ≤ 500 nM | ≤ 500 nM
O=C(O)c1ccc(Cn2cc(-c3ccnc(-c4ncc(-c5ccccc5)[nH]4)c3)cn2)cc1 [Example 35, 4-((4-(2-(5-Phenyl-1H-imidazol-2-yl)pyridin-4-yl)-1H-pyrazol-1-yl)methyl)benzoic acid trifluoroacetate salt] | ≤ 500 nM | ≤ 500 nM
CN1CCN(c2cncc(-c3ccnc(-c4ncc(-c5ccccc5)[nH]4)c3)c2)CC1 [Example 37, 5-(4-Methylpiperazin-1-yl)-2′-(5-phenyl-1H-imidazol-2-yl)-3,4′-bipyridin trifluoroacetate salt] | > 500 nM | > 500 nM
c1ccc(-c2cnc(-c3cc(-c4ccc(N5CCOCC5)nc4)ccn3)[nH]2)cc1 [Example 41, 4-(2′-(5-Phenyl-1H-imidazol-2-yl)-3,4′-bipyridin-6-yl)morpholine trifluoroacetate salt] | > 500 nM | ≤ 50 nM
CS(=O)(=O)n1cc(-c2ccnc(-c3ncc(-c4ccccc4)[nH]3)c2)cn1 [Example 44, 4-(1-(Methylsulfonyl)-1H-pyrazol-4-yl)-2-(5-phenyl-1H-imidazol-2-yl)pyridine trifluoroacetate salt] | > 500 nM | ≤ 500 nM
CCS(=O)(=O)n1cc(-c2ccnc(-c3ncc(-c4ccccc4)[nH]3)c2)cn1 [Example 45, 4-(1-(Ethylsulfonyl)-1H-pyrazol-4-yl)-2-(5-phenyl-1H-imidazol-2-yl)pyridine trifluoroacetate salt] | ≤ 500 nM | ≤ 500 nM
c1ccc(-c2cnc(-c3cc(-c4cnn(C5CCOCC5)c4)ccn3)[nH]2)cc1 [Example 47, 2-(5-Phenyl-1H-imidazol-2-yl)-4-(1-(tetrahydro-2H-pyran-4-yl)-1H-pyrazol-4-yl)pyridine trifluoroacetate salt] | ≤ 500 nM | ≤ 50 nM
NC(=O)Cn1cc(-c2ccnc(-c3ncc(-c4ccccc4)[nH]3)c2)cn1 [Example 48, 2-(4-(2-(5-Phenyl-1H-imidazol-2-yl)pyridin-4-yl)-1H-pyrazol-1-yl)acetamide trifluoroacetate salt] | > 500 nM | > 500 nM
CN(C)C(=O)Cn1cc(-c2ccnc(-c3ncc(-c4ccccc4)[nH]3)c2)cn1 [Example 49, N,N-Dimethyl-2-(4-(2-(5-phenyl-1H-imidazol-2-yl)pyridin-4-yl)-1H-pyrazol-1-yl)acetamide trifluoroacetate salt] | > 500 nM | > 500 nM
O=C(Cn1cc(-c2ccnc(-c3ncc(-c4ccccc4)[nH]3)c2)cn1)N1CCCC1 [Example 50, 2-(4-(2-(5-Phenyl-1H-imidazol-2-yl)pyridin-4-yl)-1H-pyrazol-1-yl)-1-(pyrrolidin-1-yl)ethanone trifluoroacetate salt] | > 500 nM | > 500 nM
O=C(Cn1cc(-c2ccnc(-c3ncc(-c4ccccc4)[nH]3)c2)cn1)N1CCOCC1 [Example 51, 1-Morpholino-2-(4-(2-(5-phenyl-1H-imidazol-2-yl)pyridin-4-yl)-1H-pyrazol-1-yl)ethanone trifluoroacetate salt] | > 500 nM | > 500 nM
